Experimental data from patent US20130225530A1 (priority 2010, published 2013).
Where two headings read alike, the source gives them in different places.

Experiments:
[1] = test system: RNAPII C-terminal domain Ser2 phosphorylation; assay: Phenylephrine-induced phosphorylation of RNAPII in ventricular cardiac myocytes; format: cell-based, rat
From the text: To test Wogonin in hypertrophic conditions, ventricular cardiac myocytes from neonatal rats were isolated. Hypertrophy was induced by stimulating the cells (cardiomyocytes) with phenylephrine.

[2] = test system: leukemic CEM cells; assay: Killing of leukemic CEM T-cells (DNA fragmentation); format: cell-based
[3] = target: CDK4 (Homo sapiens, UniProt P11802); assay: Inhibition of the kinase CDK4; format: biochemical
Method: (§1) Contrary to this, the known compound Quercetin does inhibit the kinases CDK4 and CDK6 (applied at a dose of 50 µM).

[4] = target: CDK6 (Homo sapiens, UniProt Q00534); assay: Inhibition of the kinase CDK6; format: biochemical
Method: as §1

[5] = test system: normal proliferating T cells (d6 T cells)
Method: Apoptotic cell death was determined by DNA fragmentation after 48 hours.
Since proliferating cells are in general more susceptible to drug-induced apoptotic cell death, the T cells were activated through PHA stimulation and cultured for further 5 days under supplementation of IL-2 (so called d6 T cells).

[6] = target: CDK2 (Homo sapiens, UniProt P24941); assay: Inhibition of the cellular kinase CDK2; format: biochemical
Method: The amount of phosphorylated substrate was determined by Western Blot using phospho-specific antibodies.

[7] = target: T1, CDK9 (Homo sapiens, UniProt P50750); assay: Duration of the inhibitory effect on CDK9 in CEM; format: cell-based; conditions: dose of 50 μM in CEM
T1 construct: endogenous in cells; host or cells: CEM

[8] = test system: ventricular cardiac myocytes; assay: Tolerance of the compound by ventricular cardiac myocytes; format: cell-based, rat; conditions: even at higher doses
From the text: To test Wogonin in hypertrophic conditions, ventricular cardiac myocytes from neonatal rats were isolated.

Chain of CDK6 (Q00534 whole entry, species assumed): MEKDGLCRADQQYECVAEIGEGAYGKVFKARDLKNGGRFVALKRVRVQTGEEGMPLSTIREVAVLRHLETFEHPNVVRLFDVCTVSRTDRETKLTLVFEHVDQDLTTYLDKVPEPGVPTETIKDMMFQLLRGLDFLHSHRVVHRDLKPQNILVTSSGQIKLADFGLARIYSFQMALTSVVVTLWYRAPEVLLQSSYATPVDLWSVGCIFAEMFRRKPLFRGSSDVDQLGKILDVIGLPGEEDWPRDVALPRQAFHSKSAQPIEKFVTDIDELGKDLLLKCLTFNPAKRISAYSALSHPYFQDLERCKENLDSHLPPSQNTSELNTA
Chain of CDK4 (P11802 whole entry, species assumed): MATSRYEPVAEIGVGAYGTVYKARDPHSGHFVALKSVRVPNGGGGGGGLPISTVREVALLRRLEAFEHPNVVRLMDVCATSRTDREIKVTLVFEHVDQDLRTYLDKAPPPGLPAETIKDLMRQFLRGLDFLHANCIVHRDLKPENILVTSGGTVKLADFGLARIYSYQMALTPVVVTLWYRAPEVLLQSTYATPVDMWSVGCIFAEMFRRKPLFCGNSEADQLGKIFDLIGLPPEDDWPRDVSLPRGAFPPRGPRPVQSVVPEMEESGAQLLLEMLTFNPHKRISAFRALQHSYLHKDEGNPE
T1 sequence (P50750 whole entry): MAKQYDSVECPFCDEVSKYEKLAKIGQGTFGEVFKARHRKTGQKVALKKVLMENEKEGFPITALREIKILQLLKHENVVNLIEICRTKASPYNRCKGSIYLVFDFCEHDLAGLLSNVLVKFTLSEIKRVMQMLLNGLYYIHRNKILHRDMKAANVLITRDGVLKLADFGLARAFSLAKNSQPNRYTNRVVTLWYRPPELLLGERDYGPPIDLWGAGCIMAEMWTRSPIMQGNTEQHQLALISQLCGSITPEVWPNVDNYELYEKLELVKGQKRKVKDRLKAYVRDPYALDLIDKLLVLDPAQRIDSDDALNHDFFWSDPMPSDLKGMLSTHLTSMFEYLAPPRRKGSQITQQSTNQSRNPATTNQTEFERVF
T1 sequence (O60563 whole entry partner): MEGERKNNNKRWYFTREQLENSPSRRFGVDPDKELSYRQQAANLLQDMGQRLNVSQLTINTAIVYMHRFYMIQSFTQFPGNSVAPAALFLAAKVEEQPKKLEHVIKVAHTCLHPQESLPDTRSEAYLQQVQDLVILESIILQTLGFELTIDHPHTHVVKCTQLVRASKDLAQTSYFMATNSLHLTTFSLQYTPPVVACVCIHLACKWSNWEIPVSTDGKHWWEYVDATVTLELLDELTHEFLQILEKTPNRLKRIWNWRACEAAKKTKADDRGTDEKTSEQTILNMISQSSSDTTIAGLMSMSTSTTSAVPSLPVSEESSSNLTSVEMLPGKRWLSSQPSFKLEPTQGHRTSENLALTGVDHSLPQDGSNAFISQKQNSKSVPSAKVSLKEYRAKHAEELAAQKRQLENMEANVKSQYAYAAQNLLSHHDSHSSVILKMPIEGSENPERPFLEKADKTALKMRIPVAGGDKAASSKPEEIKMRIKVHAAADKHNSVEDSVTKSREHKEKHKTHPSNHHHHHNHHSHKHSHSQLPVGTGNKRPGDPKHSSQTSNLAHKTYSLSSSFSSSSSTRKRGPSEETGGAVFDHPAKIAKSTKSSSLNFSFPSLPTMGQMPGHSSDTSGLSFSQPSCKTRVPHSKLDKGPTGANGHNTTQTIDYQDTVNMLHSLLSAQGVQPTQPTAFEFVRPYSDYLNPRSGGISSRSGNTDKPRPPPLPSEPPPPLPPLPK

Structure (SMILES) | inhibition of phosphorylation of the RNAPII C-terminal domain at Ser2 (in words) ([1]; no concentration or cell type given) | concentration required to kill leukemic cells [2] [nM] | inhibition of CDK4 (in words) ([3]; applied at a dose of 50 μM) | inhibition of CDK6 (in words) ([4]; applied at a dose of 50 μM) | DNA-fragmentation ([5]; human, 48 h, 10 μM) | inhibition of CDK4 (in words) ([3]; no concentration given) | inhibition of CDK2 (in words) [6] | inhibition of CDK6 (in words) ([4]; no concentration given) | DNA-fragmentation ([5]; T-cells, 48 hours, dose of 10 μM) | DNA-fragmentation compared with Quercetin (in words) ([5]; T-cells, 48 hours, doses of 10 μM, 50 μM and 100 μM) | toxicity to normal T cells compared to other flavones tested (in words) ([5]; d6 T cells) | toxicity to normal proliferating T cells (in words) ([5]; up to concentrations of 100 μM, in comparison to leukemic CEM cells) | inhibition of phenylephrine-induced phosphorylation of RNAPII (in words) ([1]; neonatal rat cardiomyocytes, 50 μM in a solution) | duration of inhibitory effect on CDK9 compared with Quercetin (in words) [7] | tolerance by the cells (in words) [8]
CN1CC[C@H](c2c(O)cc(O)c3c(=O)cc(-c4ccccc4Cl)oc23)[C@H](O)C1 [Flavopiridol, reference compound] | inhibits phosphorylation | ~500 |  |  |  |  |  |  |  |  |  |  |  |  | 
O=c1c(O)c(-c2ccc(O)c(O)c2)oc2cc(O)cc(O)c12 [Quercetin, reference compound] |  |  | does inhibit | does inhibit | more than 15% |  |  |  |  |  |  |  |  |  | 
COc1c(O)cc(O)c2c(=O)cc(-c3ccccc3)oc12 [Wogonin, 5,7-Dihydroxy-8-methoxy-flavone] |  |  | do not inhibit | do not inhibit |  | does not strongly inhibit | does not strongly inhibit | does not strongly inhibit | less than 5% | much less DNA-fragmentation | particularly low toxicity | no or very low toxicity | almost completely inhibited | much longer inhibitory effect | well supported by the cells
